The source of these data is patent publication US11351137B2, “Composition and method for dual targeting in treatment of neuroendocrine tumors” (NANOPHARMACEUTICALS LLC, priority 2018, dated 2022).

Entries after “also recorded” stand apart in the source; their conditions may differ.

The test system of data set [1] is neuroblastoma SKNF1 cells. Kind of data set: Compositions 7a, 7b and 15 on subcutaneously implanted SKNF1 neuroblastoma tumor in female nude mice. It counts as in vivo. The procedure:
The efficacy of Compositions 7a (dI-BG-P-TAT), 7b (dM-BG-P-TAT), and 15 (BG-P-PAT) were tested using neuroblastoma SKNF1 cells implanted into nude female mice similar to the examples discussed above for Composition 300 (BG-P-TAT).
Further, to compare the histopathological changes in tumors of untreated and treated groups, tumors were harvested, fixed, and stained with hematoxylin and eosin (H&E). Necrosis at low magnification of tumors from animals treated with compounds 7a, 7b, and 15 versus control is seen clearly as shown in Figure. […] On the other hand, tumors from the untreated group had mostly viable tumor cells. […]

Data set [2] addresses purified integrin αvβ3 receptor (Homo sapiens, UniProt P05106+P06756). Kind of data set: Binding affinity towards purified integrin αvβ3 receptor.
Data set [3] has as its system SKNF2 cell lines. The data set is described as follows: Comparative examples: BG, BG derivatives, TAT derivative and co-administration versus Composition 300 in mice implanted with SKNF2 cell lines. It is filed as in vivo. The following applies: for Percentage of Tumor Growth Suppression / Reduction of tumor viability: Dosage 3 mg/kg. The protocol:
FIGS. 12a and 12b shown the effect of the control and treatment with BG, BG derivatives, thyrointegrin antagonists such as TAT derivatives, and combinations (co-administration) thereof, versus Composition 300 (BG-P-TAT) on tumor cell necrosis of mice implanted with SKNF2 cell lines.
Further, even a combination treatment of two triazole tetrac derivatives in combination delivered subcutaneously daily for three (3) weeks at 3 mg/kg only achieves a reduction of 40-50% for tumor growth and tumor viability. Similar results are obtained with treatments using benzyl guanidine and benzyl guanidine derivatives.
For example, the graph of FIG. 12b includes the effect of a triazole tetrac derivative (referred to as TAT) on tumor weight when compared with a control group (phosphate-buffered saline “PBS”). The specific derivative tested was beta cyclodextrin triazole tetrac.
Again, beta cyclodextrin triazole tetrac was the tetrac derivative used.
Composition 300 achieves approximately 80% reduction in tumor. Further, the viability of residual tumor was reduced by 80%.

Data set [4] has as its system neuroblastoma SKNF2 cells. The data set is described as follows: Composition 300 dose response on subcutaneously implanted SKNF2 neuroblastoma tumor in female nude mice. It counts as in vivo. The note with it: for tumor shrinkage (tumor weight) / tumor cell viability / tumor cell necrosis rate: 15 days; for tumor cell viability: control 70-75%. The protocol:
The efficacy of Composition 300 (BG-P-TAT) was tested using neuroblastoma SKNF2 cells implanted into nude female mice.
Fifteen (15) female nude mice were implanted with twice with 10^6 cells/implant. The SKNF2 cell line was used with subcutaneous xenografts.
Eight (8) days following implantation, the mice were divided into four groups receiving the following treatment for 15 days:
Following fifteen (15) days of treatment, tumors were collected in order to evaluate histopathology, and the following results were collected: […]

Data set [5] deals with SKNF1 neuroblastoma tumors. Kind of data set: Cy5 fluorescence imaging of subcutaneously implanted SKNF1 tumor in athymic female mice. The following applies: Cy5 labeled; 1-24 hours post-administration; compared with triazole tetrac derivative alone or benzyl guanidine derivative alone. It is filed as in vivo. The procedure:
Athymic female mice were implanted twice each with 10^6 cells/implant. The SKNF1 cell line was used with subcutaneous xenografts.
Group 1 consisted of three mice and were treated with PEG-TAT-dye (Cy5). Group 2 consisted of three mice and were treated with PEG-BG-dye (Cy5). Group 3 consisted of three mice and were treated with TAT-PEG-BG-dye (Cy5) wherein the TAT and BG were covalently linked with a PEG linker as compound 300. The treatment groups are shown below:
Fluorescence imaging (Cy5) was conducted 1 hour, 2 hours, 4 hours, 6 hours, and 24 hours post-administration. Imaging results are shown in FIGS. 13a and 13b, in which the tumor location is circled in yellow and the Cy5 dye appears as red.

For data set [6], the system named is SKNF2 cell lines. The data set is described as follows: Comparative examples: BG, BG derivatives, TAT derivative and co-administration versus Composition 300 in mice implanted with SKNF2 cell lines. It is filed as in vivo. The following applies: 3 mg/kg subcutaneously daily for 15 days (FIGS. 12a, 12b).

purified integrin αvβ3 receptor, sequence (P06756 31-889 limits assumed): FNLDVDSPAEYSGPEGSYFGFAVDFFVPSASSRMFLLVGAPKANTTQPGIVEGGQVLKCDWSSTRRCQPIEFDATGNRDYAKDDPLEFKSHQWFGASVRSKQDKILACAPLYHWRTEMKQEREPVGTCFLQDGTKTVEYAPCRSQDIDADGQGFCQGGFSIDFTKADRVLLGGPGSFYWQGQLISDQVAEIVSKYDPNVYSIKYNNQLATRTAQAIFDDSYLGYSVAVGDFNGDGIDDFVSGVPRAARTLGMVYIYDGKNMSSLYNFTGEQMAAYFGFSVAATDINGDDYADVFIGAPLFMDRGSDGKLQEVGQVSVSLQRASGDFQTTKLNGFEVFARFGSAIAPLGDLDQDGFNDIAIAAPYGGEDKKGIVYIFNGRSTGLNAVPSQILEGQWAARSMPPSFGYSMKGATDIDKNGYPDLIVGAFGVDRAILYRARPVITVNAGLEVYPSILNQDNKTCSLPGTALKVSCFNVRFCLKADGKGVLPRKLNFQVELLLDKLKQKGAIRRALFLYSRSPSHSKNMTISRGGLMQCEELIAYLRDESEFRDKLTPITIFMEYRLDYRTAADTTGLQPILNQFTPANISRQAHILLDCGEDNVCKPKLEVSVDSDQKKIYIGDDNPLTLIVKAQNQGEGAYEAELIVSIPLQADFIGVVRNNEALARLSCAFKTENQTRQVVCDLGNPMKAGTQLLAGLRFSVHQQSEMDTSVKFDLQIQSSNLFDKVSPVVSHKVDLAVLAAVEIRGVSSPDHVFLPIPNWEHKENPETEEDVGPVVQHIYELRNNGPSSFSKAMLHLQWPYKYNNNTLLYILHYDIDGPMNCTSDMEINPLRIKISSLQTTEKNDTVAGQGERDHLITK
purified integrin αvβ3 receptor, sequence (P06756 891-1048 partner limits assumed): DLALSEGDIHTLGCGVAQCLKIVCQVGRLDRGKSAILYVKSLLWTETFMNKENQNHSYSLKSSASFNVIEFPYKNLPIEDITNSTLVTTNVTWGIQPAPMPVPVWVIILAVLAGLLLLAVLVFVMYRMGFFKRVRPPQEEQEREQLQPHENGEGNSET
purified integrin αvβ3 receptor, sequence (P05106 27-788): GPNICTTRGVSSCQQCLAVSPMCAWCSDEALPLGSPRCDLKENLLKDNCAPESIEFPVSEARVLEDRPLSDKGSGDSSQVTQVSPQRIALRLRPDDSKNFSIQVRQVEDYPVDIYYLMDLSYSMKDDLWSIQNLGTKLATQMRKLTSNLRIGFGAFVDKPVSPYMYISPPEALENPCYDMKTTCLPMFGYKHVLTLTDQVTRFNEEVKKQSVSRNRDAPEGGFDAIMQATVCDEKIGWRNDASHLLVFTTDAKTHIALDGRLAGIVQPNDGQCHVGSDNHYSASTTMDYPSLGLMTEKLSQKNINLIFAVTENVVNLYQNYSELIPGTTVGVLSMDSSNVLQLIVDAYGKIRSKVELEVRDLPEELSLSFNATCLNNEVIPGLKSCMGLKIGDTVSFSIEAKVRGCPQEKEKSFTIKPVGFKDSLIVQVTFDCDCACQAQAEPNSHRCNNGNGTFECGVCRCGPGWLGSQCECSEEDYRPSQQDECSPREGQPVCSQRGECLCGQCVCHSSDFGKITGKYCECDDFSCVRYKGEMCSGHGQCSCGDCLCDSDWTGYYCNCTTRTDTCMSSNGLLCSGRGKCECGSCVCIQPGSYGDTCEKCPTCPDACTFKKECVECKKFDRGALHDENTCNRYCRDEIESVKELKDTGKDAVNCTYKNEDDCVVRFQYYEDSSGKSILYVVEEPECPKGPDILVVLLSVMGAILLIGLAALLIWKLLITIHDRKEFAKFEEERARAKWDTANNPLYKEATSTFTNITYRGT

With `N=C(N)NCc1ccc(OCCOCCOCCOCCOCCOCCOCCOCCN2CCN(CCCOc3c(I)cc(Oc4c(I)cc(CC(=O)O)cc4I)cc3I)CC2)cc1` [Composition 15], in data set [1] (3 mg/kg subcutaneously, 20 days, control rose from 175 mm^3 to 1000 mm^3), the “tumor volume over twenty days” value is on record as “no substantial increase”. Besides, in data set [1] (3 mg/kg, 20 days of treatment), the “areas of necrosis, fibrosis and cell debris (H&E staining)” value is recorded as “approximately 98%”; the “decrease in tumor weight versus control” value stood at 90%. The IC50 in data set [2] turned out to be 0.3 nM. Moreover, the “fold increase in binding affinity relative to BG-P-TAT” value in data set [2] (αvβ3 binding) is listed as approximately 30 fold.
On to `N=C(N)NCc1ccc(OCCOCCOCCOCCOCCOCCOCCn2cc(COc3c(I)cc(Oc4c(I)cc(CC(=O)O)cc4I)cc3I)nn2)cc1` [Composition 300, 2-(4-(4-((1-(20-(4-(guanidinomethyl)phenoxy)-3,6,9,12,15,18-hexaoxaicosyl)-1H-1,2,3-triazol-4-yl)methoxy)-3,5-diiodophenoxy)-3,5-diiodophenyl)acetic acid], for which the “reduction of viability of residual tumor” value in data set [3] (3 mg/kg) was 80%. Also, the “tumor weight shrinkage / reduction versus control (PBS)” value in data set [3] (3 mg/kg subcutaneously daily for 15 days (FIGS. 12a, 12b), listed as BG-P-TAT) is 80%. The “Percentage of Tumor Growth Suppression” value in data set [3] is on record as 80-90%. Further, the “Reduction of tumor viability” value in data set [3] is on record as 80-90%. For the same compound, the figures for the “tumor shrinkage (tumor weight)” value in data set [4] (1 mg/kg daily), in data set [4] (3 mg/kg daily) and in data set [4] (10 mg/kg daily) were 60%, 80% and 100%, respectively. Moreover, the tumor cell viability stood at 50% in data set [4] (1 mg/kg daily), 20 in data set [4] (3 mg/kg daily) and 0.00% in data set [4] (10 mg/kg daily). The figures for the “tumor cell necrosis rate” value in data set [4] (1 mg/kg), in data set [4] (3 mg/kg) and in data set [4] (10 mg/kg) were “approximately 50%”, “approximately 80%” and approximately 100%, respectively. For the same compound, in data set [4] (10 mg/kg group, start approximately 825 mm^3, control rose to 1050 mm^3), the “tumor volume after 15 days of treatment” value is given as approximately 100 mm^3. Further, the “effect on animal body weight” value in data set [4] (1, 3 and 10 mg/kg subcutaneously daily for 15 days, versus control animals) is given as “no effect; also recorded: no significant changes”. Also, the cancer cell necrosis in data set [4] (at the 3 and 10 mg/kg doses (FIG. 11 legend)) is 80-100%. Moreover, the “abnormal animal head movements (circling) seen in control mice” value in data set [4] (treated mice, 1-10 mg/kg) was “disappearance”. Besides, the tumor vasculature entry in data set [4] (treatment groups 1-10 mg/kg versus control) is recorded as “clearly diminished”. In addition, the “retention time within the tumor (Cy5 fluorescence)” value in data set [5] is on record as “marked improvement”. Further, the “uptake into the SKNF1 neuroblastoma tumors (Cy5 fluorescence)” value in data set [5] is “marked improvement; also recorded: highest intensity accumulation”. In addition, the IC50 in data set [2] is 10.3 nM.
Regarding beta cyclodextrin triazole tetrac [TAT], in data set [3], the “Percentage of Tumor Growth Suppression” value was 40-50% and the “Reduction of tumor viability” value is listed as 40-50%. The “tumor weight shrinkage / reduction versus control (PBS)” value in data set [6] is 40-50%.
For `N=C(N)NCc1ccccc1` [BG, benzyl guanidine], in data set [3], the “Percentage of Tumor Growth Suppression” value is given as 40-50% and the “Reduction of tumor viability” value was 40-50%.
For `N=C(N)NCc1cccc([131I])c1` [MIBG, meta-iodobenzylguanidine], in data set [3], the “Percentage of Tumor Growth Suppression” value is recorded as 40-50% and the “Reduction of tumor viability” value is 40-50%.

What is called IC50 is the concentration needed to halve the response being measured. A lower IC50 goes with greater potency in that assay.
